From patent US12077503B2, “Substituted cyclic amides and their use as herbicides” (FMC CORPORATION, priority 2015, dated 2024)

Columns and labels:
Assay type in all cases: in vivo
[1] = tested on: ragweed (common ragweed, Ambrosia elatior); assay: Test A preemergence; settings: Ambrosia artemisiifolia, pre-emergence, 240 h; for pest or weed control at 125 g/ha: 125 g ai/ha, preemergence, 0 to 100 scale where 0 is no effect and 100 is complete control, read-out: Ragweed plant response rating; for pest or weed control at 500 g/ha: 500 g ai/ha, Preemergence, visual injury vs untreated controls after approximately 10 d, read-out: Ragweed plant response rating (0 to 100 scale where 0 is no effect and 100 is complete control)
Outline: (§1)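 Each rating is a visual injury score from 0 to 100 given about 10 d after treatment, judged against untreated controls kept alongside in the greenhouse. In loam soil–sand blend, seeds got a preemergence directed soil spray, while postemergence plants were 2 to 10 cm tall at spraying.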

[2] = tested on: barnyardgrass (Echinochloa crus-galli); assay: Test B flooded paddy test; settings: Echinochloa crus-galli, Flood, 250 g ai/ha; scale of 0 to 100 where 0 is no effect and 100 is complete control; read-out: Barnyardgrass plant response rating
Outline: (§2)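 Visual ratings (0 none to 100 complete control) are relative to untreated plants, taken 13–15 d after treatment in a greenhouse. Test material went straight into floodwater standing 3 cm above the soil, kept constant, on plants at the 2-leaf stage.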

rice (Oryra sativa) = assay: Test B flooded paddy test; settings: Oryza sativa, Flood, 250 g ai/ha; scale of 0 to 100 where 0 is no effect and 100 is complete control; read-out: Rice plant response rating
Outline: as §2

[3] = tested on: ducksalad (Heteranthera limosa); assay: Test B flooded paddy test; settings: Heteranthera limosa, Flood, 250 g ai/ha; scale of 0 to 100 where 0 is no effect and 100 is complete control; read-out: Ducksalad plant response rating
Outline: as §2

[4] = tested on: sedge, umbrella (small-flower umbrella sedge, Cyperus difformis); assay: Test B flooded paddy test; settings: Cyperus difformis, Flood, 250 g ai/ha; scale of 0 to 100 where 0 is no effect and 100 is complete control; read-out: Sedge, Umbrella plant response rating
Outline: as §2

[5] = tested on: blackgrass (Alopecurus myosuroides); assay: Test A postemergence; settings: Alopecurus myosuroides, post-emergence, 240 h, 125 g ai/ha, postemergence, visual injury rating after approximately 10 d; read-out: Blackgrass plant response rating (0 to 100 scale, 0 no effect, 100 complete control)
Outline: as §1

corn (Zea mays) = assay: Test A postemergence; settings: Zea mays, post-emergence, 240 h, 125 g ai/ha, postemergence, visual injury rating after approximately 10 d; read-out: Corn plant response rating (0 to 100 scale, 0 no effect, 100 complete control)
Outline: as §1

[6] = tested on: ragweed (common ragweed, Ambrosia elatior); assay: Test A postemergence; settings: Ambrosia artemisiifolia, post-emergence, 240 h, 125 g ai/ha, postemergence, visual injury rating after approximately 10 d; read-out: Ragweed plant response rating (0 to 100 scale, 0 no effect, 100 complete control)
Outline: as §1

[7] = tested on: barnyardgrass (Echinochloa crus-galli); assay: Test A postemergence; settings: Echinochloa crus-galli, post-emergence, 240 h, 125 g ai/ha, postemergence, visual injury rating after approximately 10 d; read-out: Barnyardgrass plant response rating (0 to 100 scale, 0 no effect, 100 complete control)
Outline: as §1

Kochia (Kochia scoparia) = assay: Test A postemergence; settings: Bassia scoparia, post-emergence, 240 h, 125 g ai/ha, postemergence, visual injury rating after approximately 10 d; read-out: Kochia plant response rating (0 to 100 scale, 0 no effect, 100 complete control)
Outline: as §1

[8] = tested on: wheat (Triticum aestivum); assay: Test A postemergence; settings: Triticum aestivum, post-emergence, 240 h, 125 g ai/ha, postemergence, visual injury rating after approximately 10 d; read-out: Wheat plant response rating (0 to 100 scale, 0 no effect, 100 complete control)
Outline: as §1

[9] = tested on: pigweed (Amaranthus retroflexus); assay: Test A postemergence; settings: Amaranthus retroflexus, post-emergence, 240 h, 125 g ai/ha, postemergence, visual injury rating after approximately 10 d; read-out: Pigweed plant response rating (0 to 100 scale, 0 no effect, 100 complete control)
Outline: as §1

[10] = tested on: Galium (catchweed bedstraw, Galium aparine); assay: Test A postemergence; settings: Galium, post-emergence, 240 h, 125 g ai/ha, postemergence, visual injury rating after approximately 10 d; read-out: Galium plant response rating (0 to 100 scale, 0 no effect, 100 complete control)
Outline: as §1

[11] = tested on: ryegrass, Italian (Italian ryegrass, Lolium multiflorum); assay: Test A postemergence; settings: Lolium multiflorum, post-emergence, 240 h, 125 g ai/ha, postemergence, visual injury rating after approximately 10 d; read-out: Ryegrass, Italian plant response rating (0 to 100 scale, 0 no effect, 100 complete control)
Outline: as §1

[12] = tested on: giant foxtail (Setaria faberii); assay: Test A postemergence; settings: Setaria faberi, post-emergence, 240 h, 125 g ai/ha, postemergence, visual injury rating after approximately 10 d; read-out: Foxtail, Giant plant response rating (0 to 100 scale, 0 no effect, 100 complete control)
Outline: as §1

Compound | pest or weed control at 125 g/ha [1] [%] | pest or weed control at 500 g/ha [1] [%] | pest or weed control at 250 g/ha [2] [%] | pest or weed control at 250 g/ha (rice (Oryra sativa)) [%] | pest or weed control at 250 g/ha [3] [%] | pest or weed control at 250 g/ha [4] [%] | pest or weed control at 125 g/ha [5] [%] | plant injury at 125 g/ha (corn (Zea mays)) [%] | pest or weed control at 125 g/ha [6] [%] | pest or weed control at 125 g/ha [7] [%] | pest or weed control at 125 g/ha (Kochia (Kochia scoparia)) [%] | plant injury at 125 g/ha [8] [%] | pest or weed control at 125 g/ha [9] [%] | pest or weed control at 125 g/ha [10] [%] | pest or weed control at 125 g/ha [11] [%] | pest or weed control at 125 g/ha [12] [%]
CN1C[C@H](c2cc(F)cc(F)c2)[C@@H](C(=O)Nc2ccccc2[S@+](C)[O-])C1=O [Compound 871] | 0 | 20 | 0 | 0 | 0 | 0 | 0 | 20 | 0 | 50 | 0 | 20 | 0 | 50 | 20 | 40
Cc1c(F)cccc1NC(=O)[C@H]1C(=O)N(C)C[C@@H]1c1cccc(COC(F)F)c1 [Compound 874] | 20 | 60 | 65 | 0 | 100 | 0 | 60 | 50 | 20 | 90 | 20 | 20 | 0 | 20 | 20 | 90
CN1C[C@H](c2cccc(COC(F)F)c2)[C@@H](C(=O)Nc2ccccc2F)C1=O [Compound 875] | 0 | 50 | 70 | 0 | 100 | 0 | 20 | 20 | 20 | 90 | 40 | 0 | 0 | 40 | 20 | 90
CSc1ccccc1NC(=O)[C@H]1C(=O)N(C)C[C@@H]1c1cccc(COC(F)F)c1 [Compound 876] | 0 | 80 | 0 | 0 | 85 | 0 | 0 | 0 | 0 | 60 | 50 | 0 | 0 | 0 | 0 | 40
CN1C[C@H](c2cc(F)c(F)c(F)c2)[C@@H](C(=O)Nc2ccccc2F)C1=O [Compound 878] | 30 | 80 | 85 | 0 | 100 | 0 | 60 | 50 | 20 | 100 | 20 | 60 | 0 | 50 | 40 | 80
Cc1cc(C)cc([C@H]2CNC(=O)[C@@H]2C(=O)Nc2cccc(F)c2F)c1 [Compound 889] | 30 | 40 | 60 | 0 | 75 | 0 | 20 | 20 | 0 | 70 | 0 | 0 | 0 | 30 | 40 | 40
COc1c(F)ccc([C@H]2CNC(=O)[C@@H]2C(=O)Nc2ccc(F)c(F)c2F)c1Cl [Compound 890] | 0 | 0 | 60 | 0 | 90 | 0 | 20 | 20 | 0 | 90 | 60 | 0 | 0 | 50 | 0 | 70
COc1c(F)ccc([C@H]2CNC(=O)[C@@H]2C(=O)Nc2ccccc2C(F)(F)F)c1Cl [Compound 891] | 0 | 0 | 0 | 20 | 100 | 0 | 0 | 20 | 0 | 50 | 0 | 0 | 0 | 30 | 0 | 40
CN1C[C@H](c2cc(F)c(C(F)(F)F)c(F)c2)[C@@H](C(=O)Nc2ccccc2S(C)(=O)=O)C1=O [Compound 900] | 50 | 80 | 70 | 0 | 40 | 0 | 40 | 50 | 10 | 80 | 30 | 50 | 50 | 20 | 40 | 80
